Patent publication US20250042891A1, “Compound containing structure of a heteroaromatic ring, pharmaceutical composition thereof and application thereof” (SHANGHAI YINGLI PHARMACEUTICAL CO., LTD, priority 2023, published 2025)

How the values were obtained:
[1] = target: PARG (389-976) (Homo sapiens (Human), UniProt Q86W56); assay: PARG enzyme inhibition assay (TR-FRET); type: biochemical
Method: PARG in vitro assays were conducted in standard 384-well plates in a total volume of 15 μL. 5 μL of PARG (389-976) (manufactured by Chempartner Chemical Co., Ltd.) in buffer (50 mM Tris-HCL 7.5, 30 mM KCl, 1 mM EDTA, 3 mM DTT, tween-20 0.01%, BSA 0.025%) was added at a final concentration of 1.5 pM to the 384-well plates containing the compounds to be tested, which was incubated for 30 min at room temperature. To the above mixture was added 5 μL Bio PARylated His-TEV-PARP1(2-1014) substrate (manufactured by Chempartner Chemical Co., Ltd.) at a final concentration of 12 nM, after addition, the resulting mixture was incubated for 30 minutes at room temperature. Then to the mixture was added detection reagent (5 μL) which was buffered with 50 mM Tris-HCL 7.5, 30 mM KCl, 1 mM EDTA, 3 mM DTT, tween-20 0.01%, BSA 0.025%, and consisted of 3 μM of compound PDD00017273 and 9 nM Mab anti-6HIS XL665 (Cisbio: 61HISXLA) and 0.9 nM streptavidin affinity terbium cryptate (Cisbio:610SATLA), all at 3× working concentrations (final concentrations of 1 μM, 3 nM and 0.3 nM, respectively). After 120 min incubation in the dark at room temperature, TR-FRET signals were measured at Ex 340 and Em 665 and Em 615. The ratio for each well was calculated as Em 665/Em 615 and the compound inhibition rate was calculated based on the obtained data.

[2] = test system: NCI-H460; assay: CTG assay for proliferation inhibition of cell lines; type: cell-based; settings: NCI-H460, 7 days, CellTiter Glo
Method: (§1) The assay was conducted on either 384-well plates or 96-well plates. The procedures are as follows:
(§2) The cell suspensions were added to 384- or 96-well plates (384-well plate: 50 μL; 96-well plate: 100 μL) except for peripheral wells. The plates were incubated in a carbon dioxide incubator overnight, HCC1395, HCC1428 and NCI-H460 were placed in a carbon dioxide incubator of 5%, […] overnight. Prepared compounds (10 concentration gradients by serial 3-fold dilution) were added to the wells using the HPD300 micro-dosing instrument. The cell plates were incubated in a carbon dioxide incubator for 7 days. HCC1395, HCC1428 and NCI-H460 were incubated in a 5%, 37° CO2 incubator. On the day of plate measurement, 384- or 96-well plates were first equilibrated at room temperature for 10-30 minutes, then to the 384- or 96-well plate was added CellTiter Glo reagent (384-well plate: 25 μL; 96-well plate: 100 μL), shaken for 10 minutes away from light, and incubated for 10 minutes. The incubated plates were placed into Victor NIVO reader plates, and the pharmacodynamic inhibition curves were plotted and IC50 values were calculated using XLFit.

[3] = test system: HCC1428; assay: as above; type: cell-based; settings: HCC1428, 7 days, CellTiter Glo
Method: as §1, §2

[4] = test system: HCC1395; assay: as above; type: cell-based; settings: HCC1395, 7 days, CellTiter Glo
Method: as §1, §2

[5] = class symbol, Bio PARylated His-TEV-PARP1 substrate, TR-FRET
[6] = numeric value in parentheses under the class symbol

Sequence of PARG (389-976) (Q86W56 389-976): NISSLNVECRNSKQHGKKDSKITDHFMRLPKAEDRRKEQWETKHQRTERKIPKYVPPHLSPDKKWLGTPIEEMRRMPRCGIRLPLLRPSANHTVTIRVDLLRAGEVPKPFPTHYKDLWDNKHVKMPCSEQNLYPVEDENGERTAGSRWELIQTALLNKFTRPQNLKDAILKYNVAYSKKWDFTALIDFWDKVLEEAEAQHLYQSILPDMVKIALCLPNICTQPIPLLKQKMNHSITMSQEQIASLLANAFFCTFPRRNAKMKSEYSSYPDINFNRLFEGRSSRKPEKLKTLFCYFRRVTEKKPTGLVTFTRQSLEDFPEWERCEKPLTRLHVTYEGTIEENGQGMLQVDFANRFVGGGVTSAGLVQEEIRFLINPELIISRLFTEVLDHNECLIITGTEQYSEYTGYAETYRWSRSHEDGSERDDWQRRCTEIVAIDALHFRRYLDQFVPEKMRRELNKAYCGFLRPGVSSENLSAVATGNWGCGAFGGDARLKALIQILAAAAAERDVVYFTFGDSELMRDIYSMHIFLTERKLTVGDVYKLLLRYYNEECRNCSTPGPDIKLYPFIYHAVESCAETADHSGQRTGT

| IC50 [1, 5] | IC50 [2] | IC50 [3] | IC50 [4] | IC50 [1, 6] | IC50 ([2]; Homo sapiens, 168 h) | IC50 ([3]; Homo sapiens, 168 h) | IC50 ([4]; Homo sapiens, 168 h) | Compound |
| --- | --- | --- | --- | --- | --- | --- | --- | --- |
| < 1 nM | 0.261 µM | 0.454 µM | 0.3 µM |  |  |  |  | CN=S(=O)(C(C)C)N1CC=C(c2cc(S(=O)(=O)NC3(C#N)CC3)cc3c(-c4nnc(C(F)F)s4)nn(C)c23)CC1 (stereo not shown) [Compound 40] |
| 1 to 10 nM |  |  |  |  | 0.115 µM | 0.0778 µM | 0.181 µM | CC(C)S(=O)(=O)N1CC=C(c2cc(S(=O)(=O)NC3(C#N)CC3)cc3c(-c4nnc(C(F)(F)F)s4)nn(CC4COC4)c23)CC1 [Compound 60] |
| 1 to 10 nM | 0.216 µM | 0.201 µM | 0.253 µM |  |  |  |  | CC(C)S(=O)(=O)N1CC=C(c2cc(S(=O)(=O)NC3(C#N)CC3)cc3c(-c4nnc(C(F)(F)F)s4)nn(CC(F)(F)F)c23)CC1 [Compound 58] |
| < 1 nM | 0.292 µM |  | 0.296 µM |  |  |  |  | CC(C)S(=O)(=O)N1CC=C(c2cc(S(=O)(=O)NC3(C#N)CC3)cc3c(-c4nnc(C(F)F)s4)nn(C)c23)C(F)C1 (stereo not shown) [Compound 69] |
|  | 1.07 µM |  | 1.05 µM |  |  |  |  | CC(C)S(=O)(=O)N1CC=C(c2cc(S(=O)(=O)NC3(C#N)CC3)cc3c(-c4nnc(C(F)F)s4)n(CC4CC4)nc23)CC1 [Compound 44] |
| < 1 nM | 0.429 µM | 0.369 µM | 0.827 µM |  |  |  |  | Cn1nc(-c2nnc(C(F)F)s2)c2cc(S(=O)(=O)NC3(C#N)CC3)cc(C3=CCN(S(=O)(=O)C4CCNCC4)CC3)c21 [Compound 39] |
| 1 to 10 nM | 0.426 µM | 0.532 µM | 0.5 µM |  |  |  |  | CC(C)S(=O)(=O)N1CC=C(c2cc(S(=O)(=O)NC3(C#N)CC3)cc3c(-c4ccc(C(F)F)nn4)nn(C)c23)CC1 [Compound 78] |
| < 1 nM | 0.0729 µM | 0.0978 µM | 0.127 µM |  |  |  |  | CC(C)S(=O)(=O)N1CCC(c2cc(S(=O)(=O)NC3(C#N)CC3)cc3c(-c4nnc(C(F)F)s4)nn(C)c23)=C(CO)C1 [Compound 36] |
| 10 to 100 nM | 2.05 µM |  | 2.04 µM |  |  |  |  | CC(C)[S+]([O-])c1ccc(-c2cc(S(=O)(=O)NC3(C#N)CC3)cc3c(-c4nnc(C(F)(F)F)s4)nn(C)c23)nc1 (stereo not shown) [Compound 48] |
| < 1 nM |  | 0.207 µM | 0.392 µM |  |  |  |  | CC(C)S(=O)(=O)N1CC=C(c2cc(S(=O)(=O)NC3(C#N)CC3)cc3c(-c4noc(C(F)(F)F)n4)nn(C)c23)CC1 [Compound 53] |
| < 1 nM | 0.366 µM | 0.4 µM | 0.432 µM |  |  |  |  | CC(C)S(=O)(=O)N1CCC2(c3cc(S(=O)(=O)NC4(C#N)CC4)cc4c(-c5nnc(C(F)F)s5)nn(C)c34)OC2C1 (stereo not shown) [Compound 38] |
| < 1 nM |  | 1.68 µM | 1.63 µM |  |  |  |  | CC(C)S(=O)(=O)N1CC=C(c2cc(S(=O)(=O)NC3(C#N)CC3)cc3c(-c4nnc(C(F)(F)F)s4)nn(CC4CNC4)c23)CC1 [Compound 61] |

The next lines start with the compound.

| Compound | IC50 [1, 5] | IC50 [2] | IC50 [3] | IC50 [4] | IC50 [1, 6] | IC50 ([2]; Homo sapiens, 168 h) | IC50 ([3]; Homo sapiens, 168 h) | IC50 ([4]; Homo sapiens, 168 h) |
| --- | --- | --- | --- | --- | --- | --- | --- | --- |
| CC(C)S(=O)(=O)c1ccc(-c2cc(S(=O)(=O)NC3(C#N)CC3)cc3c(-c4nnc(C(F)F)s4)nn(C)c23)cn1 [Compound 24] | < 1 nM | 0.493 µM | 0.578 µM | 0.65 µM |  |  |  |  |
| CC(C)[S+]([O-])C1CC=C(c2cc(S(=O)(=O)NC3(C#N)CC3)cc3c(-c4nnc(C(F)F)s4)nn(C)c23)CC1 (stereo not shown) [Compound 30] | < 1 nM | 0.656 µM | 0.45 µM | 0.787 µM | 0.61 nM |  |  |  |
| CC(C)S(=O)(=O)C1CC=C(c2cc(S(=O)(=O)NC3(C#N)CC3)cc3c(-c4nnc(C(F)F)s4)nn(C)c23)CC1 (stereo not shown) [Compound 31] | 1 to 10 nM | 0.457 µM | 0.507 µM | 0.641 µM | 1.14 nM |  |  |  |
| Cn1nc(-c2nnc(C(F)F)s2)c2cc(S(=O)(=O)NC3(C#N)CC3)cc(C3=CCN(S(=O)(=O)C4CCC4)CC3)c21 [Compound 12] | < 1 nM |  |  |  |  | 0.148 µM | 0.151 µM | 0.169 µM |
| CC(C)S(=O)(=O)c1ccc(-c2cc(S(=O)(=O)NC3(C#N)CC3)cc3c(-c4nnc(C(F)F)s4)nn(C)c23)cc1 [Compound 9] | 1 to 10 nM | 0.147 µM | 1.17 µM | 0.197 µM |  |  |  |  |
| CC(C)[S+]([O-])N1CC=C(c2cc(S(=O)(=O)NC3(C#N)CC3)cc3c(-c4nnc(C(F)F)s4)nn(C)c23)CC1 (stereo not shown) [Compound 25] | < 1 nM | 0.185 µM | 0.152 µM | 0.206 µM | 0.34 nM |  |  |  |
| Cn1nc(-c2nnc(C(F)F)s2)c2cc(S(=O)(=O)NC3(C#N)CC3)cc(C3=CCN(S(=O)(=O)C4COC4)CC3)c21 [Compound 22] | < 1 nM | 0.714 µM | 1.09 µM | 0.605 µM |  |  |  |  |
| CC(C)S(=O)(=O)N1CC=C(c2cc(S(=O)(=O)NC3(C#N)CC3)cc3c(-c4nnc(C(F)(F)F)s4)nn(C)c23)CC1 [Compound 15] | < 1 nM | 0.0561 µM | 0.117 µM | 0.0955 µM |  |  |  |  |
| COCC(C)S(=O)(=O)N1CC=C(c2cc(S(=O)(=O)NC3(C#N)CC3)cc3c(-c4nnc(C(F)F)s4)nn(C)c23)CC1 (stereo not shown) [Compound 23] | < 1 nM | 0.124 µM | 0.466 µM | 0.183 µM |  |  |  |  |
| CN(C)S(=O)(=O)N1CC=C(c2cc(S(=O)(=O)NC3(C#N)CC3)cc3c(-c4nnc(C(F)F)s4)nn(C)c23)CC1 [Compound 32] | 1 to 10 nM | 0.21 µM | 0.232 µM | 0.177 µM | 1.03 nM |  |  |  |
| CC(C)S(=O)(=O)N1CC=C(c2cc(S(=O)(=O)NC3(C#N)CC3)cc3c(-c4nnc(C(F)F)s4)nn(CCN(C)C)c23)CC1 [Compound 26] | < 1 nM | 0.139 µM | 0.0865 µM |  | 0.16 nM |  |  |  |
| CC(C)S(=N)(=O)N1CC=C(c2cc(S(=O)(=O)NC3(C#N)CC3)cc3c(-c4nnc(C(F)F)s4)nn(C)c23)CC1 (stereo not shown) [Compound 33] | < 1 nM | 0.5 µM | 0.616 µM | 0.691 µM |  |  |  |  |
| CC(C)S(=O)(=O)N1CC=C(c2cc(S(=O)(=O)NC3(C)CC3)cc3c(-c4nnc(C(F)F)s4)nn(C)c23)CC1 [Compound 19] | < 1 nM | 0.0414 µM | 0.196 µM | 0.0532 µM | 0.12 nM |  |  |  |
| CC(C)S(=O)(=O)N1CCN(c2cc(S(=O)(=O)NC3(C#N)CC3)cc3c(-c4nnc(C(F)(F)F)s4)nn(C)c23)CC1 [Compound 35] | < 1 nM | 0.162 µM | 0.698 µM | 0.284 µM |  |  |  |  |
| CC(C)C(=O)N1CCN(c2cc(S(=O)(=O)NC3(C#N)CC3)cc3c2cnn3-c2nnc(C(F)F)s2)CC1 [1′, reference compound] | 1 to 10 nM |  |  |  | 1.9 nM | 0.796 µM | 1.38 µM | 1.29 µM |
| CC(C)S(=O)(=O)N1CC=C(c2cc(S(=O)(=O)NC3(CF)CC3)cc3c(-c4nnc(C(F)F)s4)nn(C)c23)CC1 [Compound 18] | < 1 nM | 0.0408 µM | 0.215 µM | 0.0423 µM | 0.12 nM |  |  |  |
| Cn1nc(-c2nnc(C(F)F)s2)c2cc(S(=O)(=O)NC3(C#N)CC3)cc(C3=CCN(S(=O)(=O)C4CNC4)CC3)c21 [Compound 20] | < 1 nM | 2.81 µM | 3.02 µM | 3.95 µM | 0.06 nM |  |  |  |
| Cn1nc(-c2nnc(C(F)F)s2)c2cc(S(=O)(=O)NC3(C#N)CC3)cc(C3=CCN(S(=O)(=O)C4(C)CC4)CC3)c21 [Compound 14] | < 1 nM |  |  |  |  | 0.122 µM | 0.399 µM | 0.126 µM |
| CC(C)S(=O)(=O)N1CC=C(c2cc(S(=O)(=O)NC3(C#N)CC3)cc3c(-c4nnc(C(F)(F)F)s4)nn(Cc4ccncc4)c23)CC1 [Compound 59] | 1 to 10 nM |  |  |  |  | 0.27 µM |  | 0.357 µM |
| Cn1nc(-c2nnc(C(F)F)s2)c2cc(S(=O)(=O)NC3(C#N)CC3)cc(C3=CCN(S(=O)(=O)C4CCOCC4)CC3)c21 [Compound 5] | < 1 nM | 0.183 µM | 0.132 µM | 0.222 µM | 0.33 nM |  |  |  |
